Assay results from PubChem BioAssay AID1387 (Sanford-Burnham Center for Chemical Genomics, 2008).

Test system: CSM14.1 cells, thapsigargin, p-p38/p38 MSD immunoassay
Experiment: dose-dependent blockade of p38 phosphorylation, dose response, mechanism study for ER stress cell death project, cell lysate, CSM14.1 cells, thapsigargin, immunoblotting (AID 1387)
Settings: at 10 µM (top of the series)

With COc1ccc(C2CC(=O)C3=C(C2)Nc2ccccc2NC3c2cccc(Oc3ccccc3)c2)cc1OC (stereo unspecified) the relative p-p38/p38 ratio, lower = inhibition was 0.
